Test results: patent US9980976B2, “Use of REDD1 inhibitors to dissociate therapeutic and adverse atrophogenic effects of glucocorticoid receptor agonists” (Northwestern University, priority 2015, dated 2018)

Columns and labels:
mouse skin = assay: Glucocorticoid-induced skin atrophy in mice (morphometric analysis of dorsal skin); type: in vivo
Method: Seven-week-old females in the telogen stage of the hair cycle were shaved and treated 3 days later. Glucocorticoid FA was applied topically (2 μg/animal) in 200 μl acetone to the back skin once or up to four times every third day as described (Chebotaev et al, 2007c). Control animals were treated with acetone only. Animals were injected i.p. with bromodeoxyuridine (BrdU, Sigma-Aldrich, 50 μg/g of animal weight) 1 h before skin was harvested. Epidermis and s.c. fat were isolated from the murine dorsal skin mechanically by scraping (Chebotaev et al, 2007c). […] Quantification of the epidermal width and number of basal keratinocytes (as the readouts for skin atrophy and hypoplasia of raft epidermis) was performed in dorsal skin and ORC sections stained with H&E. The number of dermal cells was determined on sections stained with Masson's trichrome in the upper (papillary) dermis that is distinguishable from the lower (reticular) dermis ([…] et al, 2013). At least 10 individual fields per slide with at least three samples in each experimental group were counted using Axioplan2 microscope software (Carl Zeiss). All measurements are presented as % to corresponding control.

REDD1 = REDD1 expression in mouse epidermis and s.c. adipose (Q-PCR, Western blot, immunostaining); type: in vivo
Method: FIG. 16. […] F1 C57B1×129 mice were treated topically with solvent (control), FA ((2 μg/mouse×8 hrs) or pretreated with Rapamycin (500 nmol/mouse×6 hrs) followed by FA treatment for 8 h. RNA and whole cell proteins were extracted from epidermis isolated as described in Matherials and Methods. A. Q-PCR analysis of REDD1 expression. The results were normalized to the expression of the housekeeping Rp127 gene, and presented as fold of change compared to control animals. The means+/−SD calculated for three individual RNA samples/condition. a—Statistically significant difference (P<0.05) compared to control; b—Statistically significant differences (P<0.05) compared to FA treatment. B. Western blot analysis of whole cell proteins in epidermis. Membranes were probed with anti-GAPDH antibodies to verify equal protein loading and transfer. C. Ear edema test. Ear edema was induced by croton oil (CO, 20 ul/ear) as in Materials and Methods. Solvent (20 ul/ear) or FA (1 ug/ear) were applied 1 h before CO after 6 hrs of pre-treatment with rapamycin (200 ng/ear) or solvent. Mice were sacrificed and four-millimeter ear punches were weighed 9 h after CO application to assess swelling. Ear punch weight results are presented as % to control (only solvent treatment) ear weight The means+/−SD were calculated for six individual ear punches/condition in one representative experiment (out of three experiments). a—Statistically significant differences (P<0.05) compared to control treatment; b—Statistically significant differences (P<0.05) compared to CO or CO+rapa treatment.
Seven-week-old females in the telogen stage of the hair cycle were shaved and treated 3 days later. Glucocorticoid FA was applied topically (2 μg/animal) in 200 μl acetone to the back skin once or up to four times every third day as described (Chebotaev et al, 2007c). Control animals were treated with acetone only. Animals were injected i.p. with bromodeoxyuridine (BrdU, Sigma-Aldrich, 50 μg/g of animal weight) 1 h before skin was harvested. Epidermis and s.c. fat were isolated from the murine dorsal skin mechanically by scraping (Chebotaev et al, 2007c).
Sections of formalin-fixed, paraffin-embedded skin and ORCs were stained with hematoxylin and eosin (H&E), Masson's trichrome to evaluate the effect on dermis and collagen fibers (Sheehan & Hrapchack, 1980), and with antibodies against BrdU (BD Biosciences, San Jose, Calif., USA), keratins 1, 5, and 10, loricrin (Covance, Princeton, N.J.), phospho-mTORSer2448 (Cell Signaling Technology, Inc., Danvers, Mass., USA), REDD1 (Proteintech Group, Inc, Chicago, Ill.), p63 (eBioscience, San Diego, Calif., USA), and CD34 (Abcam, Cambridge, Mass., USA). […]

[1] = B6D2 mice, FA 2 μg/animal topically every 72 h, 2-week treatment

With `CC1(C)O[C@@H]2C[C@H]3[C@@H]4C[C@H](F)C5=CC(=O)C=C[C@]5(C)[C@@]4(F)[C@@H](O)C[C@]3(C)[C@]2(C(=O)CO)O1` [FA, fluocinolone acetonide] the “depletion of the interfollicular basal keratinocytes” value (mouse skin; [1]) was 50%, the epidermal thinning (mouse skin; [1]) was 50% and the “depletion of s.c. adipose tissue” value (mouse skin; B6D2 mice, chronic FA treatment) was “complete depletion”. The “reduction of epidermal thickness” value (mouse skin; B6×129 mice, FA 2 ug/animal every 72 h for 2 weeks, with or without rapamycin 500 ug/animal×5 hrs pretreatment) was 50%, the skin atrophy (mouse skin; F1 C57B1×129 mice, topical FA, 2 wk treatment) was “severe skin atrophy” and the “reduction of epidermal thickness” value (mouse skin; REDD1 KO mice, chronic FA 2 μg/animal every 72 h for 2 weeks) was < 20%. The “number of dermal fibroblasts” value (mouse skin; w.t. B6×129 mice treated with FA×2 wk, Masson's trichrome) was “strongly decreased”, the “reduction of epidermal thickness” value (mouse skin; wild-type B6×129 mice, chronic FA 2 μg/animal every 72 h for 2 weeks) was 50% and the “REDD1 expression in s.c. adipose versus epidermis” value (REDD1; B6D2 mice, 24 h after FA, Q-PCR) was “equally activated in s.c. adipose and epidermis”. The “REDD1 expression in skin” value (REDD1; F1 C57B1×129 mice, topical FA 2 ug/animal×24 h) was “strongly induced”, the “REDD1 mRNA increase” value (REDD1; epidermis of B6D2 mice, 4-24 h after the first FA application, Q-PCR) was ~4.5 fold and the REDD1 protein expression (REDD1; skin of B6D2 mice, Western blot and immunostaining, single and chronic FA) was “induced REDD1 expression as early as 4-8 h after first application”.
